The source of these data is PubChem BioAssay (NCI).

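Results reflect a 48-hour exposure of cells in 96-well plates to compound at five concentrations. GI50 = concentration required for 50% inhibition of growth. TGI: total growth inhibition.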

Holding throughout (test): DTP human tumour cell line panel, 48 h
Assay [1] deals with PC-3 prostate.
Assay [2] relates to OVCAR-4 ovarian.
In assay [3] the test system is 786-0 renal.
For assay [4], the system named is TK-10 renal.
The subject of assay [5] is CAKI-1 renal.
For assay [6], the system named is KM12 colon.
In assay [7] the test system is UACC-62 melanoma.
In assay [8] the test system is SNB-19 CNS.
Assay [9] deals with HCT-116 colon.
The test system of assay [10] is EKVX NSCLC.
Assay [11] relates to HT29 colon.

Turning to `COc1nc2c(c(=O)n1C)N(C(C)=O)C1C(N2)OCC(OC(C)=O)C1OC(C)=O` (stereo unspecified), the TGI in [1], in assay [2], in assay [3], in assay [4], in assay [5] and in assay [6] was > 10 µM throughout. For the same compound, the TGI in [7], in [8], in assay [9], in assay [10] and in assay [11] was > 10 µM throughout.

With `CC(=O)Nc1ccccc1SCCSSCCSc1ccccc1NC(C)=O`, the TGI is > 100 µM in assay [1]; 57.1 µM in assay [2]; 64.3 µM in [3]; > 100 µM in assay [4]; 83.4 µM in assay [5]; > 100 µM in [6]. Besides, the TGI in [7] was > 100 µM; in assay [8], 36.7 µM; in assay [9], > 100 µM; in [10], > 100 µM; in [11], 76.8 µM.

Take `Cc1ccc(-c2nc3ccc(Cl)cc3[nH]2)cc1`: the concentration for total growth inhibition (TGI) in assay [1], in [2], in assay [3], in assay [4], in [5] and in [6] was > 100 µM each time. Further, the TGI in assay [7], in assay [8], in assay [9], in assay [10] and in assay [11] was > 100 µM each time.

Turning to `O=C(N=S(NC(=O)c1ccccc1)C(Cl)(Cl)Cl)c1ccccc1` (stereo unspecified), the TGI is > 100 µM in [1]; 38 µM in assay [2]; 54.9 µM in assay [3]; > 100 µM in [4]; 54.9 µM in assay [5]; > 100 µM in assay [6]. In addition, the concentration for total growth inhibition (TGI) was > 100 µM in assay [7]; > 100 µM in assay [8]; 28.8 µM in [9]; 39.2 µM in assay [10]; 36.3 µM in [11].

`CSc1nc(N)c(NC2OC(CO)C(O)C2O)c(=O)[nH]1` (stereo unspecified): the TGI in assay [1], in [2], in assay [3], in assay [4], in [5] and in assay [6] was > 100 µM in each case. In addition, the TGI in [7], in assay [8], in assay [9], in assay [10] and in assay [11] was > 100 µM each time.

Turning to `Cc1ccccc1N=Nc1ccc(N=Nc2c(O)ccc3ccccc23)c(C)c1`, the TGI in assay [1], in assay [2], in assay [3], in [4], in assay [5] and in assay [6] was > 100 µM throughout. In addition, the TGI in assay [7], in assay [8], in [9], in [10] and in [11] was > 100 µM each time.

Consider `CCCCCCNC(=O)c1cnc(Cl)cn1`, for which the TGI was 22.8 µM in assay [1]; 47.9 µM in assay [2]; > 100 µM in assay [3]; > 100 µM in assay [4]; 2.39 µM in assay [5]; 29.3 µM in assay [6]. The TGI is 33.4 µM in assay [7]; 43.7 µM in [8]; 30.7 µM in [9]; 20.7 µM in assay [10]; > 100 µM in assay [11].

For `CCC(NC(C)c1ccccc1)C(O)c1ccc(OCc2ccccc2)c(OCc2ccccc2)c1` (stereo unspecified), the TGI was found to be 27.4 µM in assay [1]; 33.5 µM in assay [2]; 27.1 µM in assay [3]; 32.4 µM in assay [4]; 24.4 µM in assay [5]; 18 µM in assay [6]. Further, the TGI turned out to be 33.7 µM in assay [7]; 28.6 µM in assay [8]; 27.7 µM in [9]; 31.2 µM in [10]; 13 µM in assay [11].

Regarding `COC(=O)c1c2n(c3ccccc13)C[C@H]1OC(C)(C)O[C@@H]21`, the TGI in assay [1], in [2], in [3], in assay [4], in [5] and in assay [6] was > 100 µM throughout. The total growth inhibition concentration (TGI) in assay [7], in [8], in assay [9], in assay [10] and in [11] was > 100 µM in each case.

`COC(=O)c1ccc2c(O)c(O)ccc2c1`: the concentration for total growth inhibition (TGI) in assay [1] was determined as 12.5 µM; in [2], 28.3 µM; in assay [3] it was 29.3 µM; in assay [4], 36.2 µM; in assay [5], 47.3 µM; in assay [6], 30.8 µM. Also, the TGI in [7] amounted to 29.4 µM; in assay [8], 27.5 µM; in assay [9], 32 µM; in [10] it was 53.5 µM; in assay [11], 33.7 µM.

For the compound `CC1=C2C(=O)c3ccccc3C(=O)[C@H]2[C@H]2CCO[C@H]2O1`, the TGI in assay [1] is > 100 µM; in [2] it was 37.4 µM; in assay [3], 37.8 µM; in assay [4] it was 67 µM; in assay [5], 46 µM; in assay [6], 58.1 µM. In addition, the TGI is 39.7 µM in [7]; > 100 µM in assay [8]; 79 µM in [9]; 91.6 µM in assay [10]; 95.2 µM in [11].

With `Cc1cc(=O)[nH]c(NN2C(Cl)C(=O)C2c2ccc(Cl)cc2)n1` (stereo unspecified), the concentration for total growth inhibition (TGI) is > 100 µM in assay [1]; > 64.7 µM in [2]; 33 µM in [3]; 48.6 µM in [4]; 30.7 µM in [5]; 16.1 µM in assay [6]. For the same compound, the TGI was found to be 39.9 µM in assay [7]; 45.2 µM in [8]; 31.1 µM in assay [9]; 35 µM in assay [10]; 54.9 µM in assay [11].

As to `COc1ccccc1NC(=O)/C(Cc1nc2ccc([N+](=O)[O-])cc2[nH]c1=O)=N\NC(=O)C[N+](C)(C)C`, the TGI in [1], in assay [2], in assay [3], in assay [4], in [5] and in [6] was > 100 µM each time. The TGI in assay [7], in assay [8], in assay [9], in assay [10] and in [11] was > 100 µM in each case.

On to `O=C(NCc1cccnc1)NCc1cccnc1`, for which the TGI in assay [1], in [2], in [3], in [4], in assay [5] and in [6] was > 100 µM throughout. In addition, the TGI in assay [7], in assay [8], in assay [9], in [10] and in [11] was > 100 µM in each case.

Consider `O=C(O[C@H]1[C@@H](O)[C@H](n2cnc3c(Cl)ncnc32)O[C@@H]1COC(c1ccccc1)(c1ccccc1)c1ccccc1)c1ccccc1`, for which the TGI in [1] is 24.5 µM; in [2] it was > 100 µM; in assay [3] it was 58.1 µM; in [4], > 100 µM; in assay [5], 10.1 µM; in [6] it was 41.7 µM. In addition, the TGI in [7] is > 100 µM; in [8] it was > 100 µM; in [9], > 100 µM; in [10], 32.3 µM; in assay [11], 62.1 µM.

Turning to `O=C(c1ccccc1)c1ccc(COc2ccc(C(c3c(O)c4ccccc4oc3=O)c3c(O)c4ccccc4oc3=O)cc2)cc1`, the TGI was 34.9 µM in [1]; 73 µM in assay [2]; 61.5 µM in [3]; 32.8 µM in [4]; 45 µM in assay [5]; 29.6 µM in assay [6]. Moreover, the TGI in assay [7] was 30 µM; in assay [8], 58.6 µM; in [9] it was > 100 µM; in [10] it was 40 µM; in [11], 34.9 µM.

Take `O=c1cc(-c2cccc(Cl)c2)[nH]c2ncccc12`: the TGI was 0.0694 µM in assay [1]; > 100 µM in assay [2]; 14.5 µM in [3]; > 100 µM in [4]; 40.4 µM in [5]; > 100 µM in assay [6]. Moreover, the TGI was > 100 µM in assay [7]; 24.1 µM in [8]; 1.17 µM in assay [9]; > 100 µM in assay [10]; > 100 µM in assay [11].

`CC1=NN(c2ccccc2)C(=O)/C1=C/c1ccc(O)cc1`: the TGI in [1], in assay [2], in assay [3], in assay [4], in assay [5] and in assay [6] was > 100 µM throughout. Besides, the concentration for total growth inhibition (TGI) in assay [7], in assay [8], in assay [9], in assay [10] and in assay [11] was > 100 µM in each case.

Consider `CCCN(C(=O)c1c(Cl)nnc(Cl)c1C(=O)c1cc(Cl)nnc1Cl)c1cc(Cl)nnc1Cl`, for which the TGI in [1] is 22.2 µM; in [2], 38.1 µM; in [3], 21 µM; in [4], 32.2 µM; in assay [5], 22.3 µM; in [6] it was 26.4 µM. Further, the TGI in [7] was determined as 24.9 µM; in [8] it was 87.7 µM; in assay [9] it was 19.6 µM; in assay [10] it was 27.3 µM; in assay [11], 43.4 µM.

Consider `C#CCOCC12C=CC(O1)C1C(=O)N(C)C(=O)C12` (stereo unspecified), for which the TGI in [1], in [2], in assay [3], in assay [4], in [5] and in assay [6] was > 100 µM each time. The TGI in assay [7], in [8], in assay [9], in assay [10] and in assay [11] was > 100 µM throughout. Also, the GI50 in [5] was > 100 µM.

For `COc1nc(N)c(NC2OC(CO)C(O)C2O)c(=O)[nH]1` (stereo unspecified), the TGI in assay [1], in assay [2], in [3], in assay [4], in assay [5] and in [6] was > 100 µM each time. Moreover, the TGI in assay [7], in [8], in assay [9], in assay [10] and in [11] was > 100 µM each time.

`C=Cc1c(C)c(OC)cc2c1Oc1ccc(OC)c(C)c1CC2`: the TGI in assay [1], in [2], in assay [3], in [4], in assay [5] and in assay [6] was > 100 µM each time. The concentration for total growth inhibition (TGI) in assay [7], in assay [8], in [9], in assay [10] and in assay [11] was > 100 µM in each case.

With `CCOC(=O)/C(C(=S)Nc1ccccc1)=C(/N)N1CCCC1`, the TGI in [1], in assay [2], in assay [3], in assay [4], in assay [5] and in assay [6] was > 100 µM throughout. Also, the TGI in assay [7], in assay [8], in assay [9], in [10] and in [11] was > 100 µM in each case.

Take `N#CC(C#N)=Cc1ccc2c(c1)OC(Cl)O2` (stereo unspecified): the TGI in assay [1] was 47.8 µM; in [2], > 100 µM; in assay [3], 35.2 µM; in [4] it was 68.1 µM; in assay [5], > 100 µM; in assay [6], 39.9 µM. In addition, the concentration for total growth inhibition (TGI) in assay [7] is 59.3 µM; in [8] it was 66.4 µM; in assay [9] it was 38.6 µM; in assay [10] it was 79.5 µM; in assay [11], 44.9 µM.

For the compound `CN(C)c1ccc(N=Nc2ccc3nc[nH]c3c2)cc1`, the TGI in assay [1] is > 100 µM; in [2], 68.5 µM; in [3] it was 36.1 µM; in [4] it was 52.8 µM; in [5], > 100 µM; in [6] it was 63.9 µM. In addition, the TGI in assay [7] is 48.7 µM; in assay [8], > 100 µM; in assay [9], 38.8 µM; in [10], > 100 µM; in assay [11], 37 µM.
